Measured values taken from ChEMBL document CHEMBL5120855, “Potent 2,3-dihydrophthalazine-1,4-dione derivatives as dual inhibitors for mono-ADP-ribosyltransferases PARP10 and PARP15” (Eur J Med Chem, 2022).

Tests used:
[1] = biological target: Poly [ADP-ribose] polymerase 2 (Homo sapiens, UniProt Q9UGN5); test: Inhibition of human PARP2 using NAD+ as substrate incubated for 10 mins by fluorescence based analysis
[2] = biological target: T1, Poly [ADP-ribose] polymerase tankyrase-2 (Homo sapiens, UniProt Q9H2K2); test: Inhibition of human N-terminal 6His-tagged TNKS2 (1030 to 1317 residues) expressed in Escherichia coli Rosetta2 (DE3) cells using NAD+ as substrate incubated for 10 mins by fluorescence based analysis
T1 sequence (Q9H2K2 whole entry): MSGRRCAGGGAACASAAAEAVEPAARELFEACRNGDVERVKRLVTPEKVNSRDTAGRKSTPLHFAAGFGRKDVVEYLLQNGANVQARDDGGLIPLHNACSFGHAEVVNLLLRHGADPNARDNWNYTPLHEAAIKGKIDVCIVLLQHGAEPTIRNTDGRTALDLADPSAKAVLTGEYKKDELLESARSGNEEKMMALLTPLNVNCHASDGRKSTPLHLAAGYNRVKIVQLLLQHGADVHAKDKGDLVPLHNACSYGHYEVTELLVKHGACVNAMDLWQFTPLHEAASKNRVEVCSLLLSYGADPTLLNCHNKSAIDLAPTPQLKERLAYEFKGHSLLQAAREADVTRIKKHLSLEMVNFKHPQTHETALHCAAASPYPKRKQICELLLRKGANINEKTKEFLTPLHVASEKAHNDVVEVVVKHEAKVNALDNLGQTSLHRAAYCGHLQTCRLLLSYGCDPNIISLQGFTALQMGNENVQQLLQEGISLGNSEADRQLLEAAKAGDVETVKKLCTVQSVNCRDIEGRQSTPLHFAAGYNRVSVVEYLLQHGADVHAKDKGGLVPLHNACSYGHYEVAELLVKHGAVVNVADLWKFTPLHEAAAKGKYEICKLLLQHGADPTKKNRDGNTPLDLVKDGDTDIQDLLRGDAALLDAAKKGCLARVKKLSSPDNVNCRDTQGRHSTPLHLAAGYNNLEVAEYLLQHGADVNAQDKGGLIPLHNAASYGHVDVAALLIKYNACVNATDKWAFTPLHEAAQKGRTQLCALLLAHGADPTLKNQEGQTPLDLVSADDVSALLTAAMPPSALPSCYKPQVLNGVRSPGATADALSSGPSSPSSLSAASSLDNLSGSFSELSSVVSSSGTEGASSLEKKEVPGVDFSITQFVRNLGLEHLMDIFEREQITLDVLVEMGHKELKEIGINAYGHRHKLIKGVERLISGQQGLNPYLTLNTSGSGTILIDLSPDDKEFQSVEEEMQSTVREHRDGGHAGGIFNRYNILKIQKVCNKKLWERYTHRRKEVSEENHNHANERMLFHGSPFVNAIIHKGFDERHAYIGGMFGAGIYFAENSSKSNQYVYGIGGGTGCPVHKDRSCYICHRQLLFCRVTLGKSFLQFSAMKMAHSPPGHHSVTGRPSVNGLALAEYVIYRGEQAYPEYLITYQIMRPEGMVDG

[3] = biological target: Protein mono-ADP-ribosyltransferase PARP4 (Homo sapiens, UniProt Q9UKK3); test: Inhibition of human PARP4
Sequence of Protein mono-ADP-ribosyltransferase PARP4 (Q9UKK3 whole entry): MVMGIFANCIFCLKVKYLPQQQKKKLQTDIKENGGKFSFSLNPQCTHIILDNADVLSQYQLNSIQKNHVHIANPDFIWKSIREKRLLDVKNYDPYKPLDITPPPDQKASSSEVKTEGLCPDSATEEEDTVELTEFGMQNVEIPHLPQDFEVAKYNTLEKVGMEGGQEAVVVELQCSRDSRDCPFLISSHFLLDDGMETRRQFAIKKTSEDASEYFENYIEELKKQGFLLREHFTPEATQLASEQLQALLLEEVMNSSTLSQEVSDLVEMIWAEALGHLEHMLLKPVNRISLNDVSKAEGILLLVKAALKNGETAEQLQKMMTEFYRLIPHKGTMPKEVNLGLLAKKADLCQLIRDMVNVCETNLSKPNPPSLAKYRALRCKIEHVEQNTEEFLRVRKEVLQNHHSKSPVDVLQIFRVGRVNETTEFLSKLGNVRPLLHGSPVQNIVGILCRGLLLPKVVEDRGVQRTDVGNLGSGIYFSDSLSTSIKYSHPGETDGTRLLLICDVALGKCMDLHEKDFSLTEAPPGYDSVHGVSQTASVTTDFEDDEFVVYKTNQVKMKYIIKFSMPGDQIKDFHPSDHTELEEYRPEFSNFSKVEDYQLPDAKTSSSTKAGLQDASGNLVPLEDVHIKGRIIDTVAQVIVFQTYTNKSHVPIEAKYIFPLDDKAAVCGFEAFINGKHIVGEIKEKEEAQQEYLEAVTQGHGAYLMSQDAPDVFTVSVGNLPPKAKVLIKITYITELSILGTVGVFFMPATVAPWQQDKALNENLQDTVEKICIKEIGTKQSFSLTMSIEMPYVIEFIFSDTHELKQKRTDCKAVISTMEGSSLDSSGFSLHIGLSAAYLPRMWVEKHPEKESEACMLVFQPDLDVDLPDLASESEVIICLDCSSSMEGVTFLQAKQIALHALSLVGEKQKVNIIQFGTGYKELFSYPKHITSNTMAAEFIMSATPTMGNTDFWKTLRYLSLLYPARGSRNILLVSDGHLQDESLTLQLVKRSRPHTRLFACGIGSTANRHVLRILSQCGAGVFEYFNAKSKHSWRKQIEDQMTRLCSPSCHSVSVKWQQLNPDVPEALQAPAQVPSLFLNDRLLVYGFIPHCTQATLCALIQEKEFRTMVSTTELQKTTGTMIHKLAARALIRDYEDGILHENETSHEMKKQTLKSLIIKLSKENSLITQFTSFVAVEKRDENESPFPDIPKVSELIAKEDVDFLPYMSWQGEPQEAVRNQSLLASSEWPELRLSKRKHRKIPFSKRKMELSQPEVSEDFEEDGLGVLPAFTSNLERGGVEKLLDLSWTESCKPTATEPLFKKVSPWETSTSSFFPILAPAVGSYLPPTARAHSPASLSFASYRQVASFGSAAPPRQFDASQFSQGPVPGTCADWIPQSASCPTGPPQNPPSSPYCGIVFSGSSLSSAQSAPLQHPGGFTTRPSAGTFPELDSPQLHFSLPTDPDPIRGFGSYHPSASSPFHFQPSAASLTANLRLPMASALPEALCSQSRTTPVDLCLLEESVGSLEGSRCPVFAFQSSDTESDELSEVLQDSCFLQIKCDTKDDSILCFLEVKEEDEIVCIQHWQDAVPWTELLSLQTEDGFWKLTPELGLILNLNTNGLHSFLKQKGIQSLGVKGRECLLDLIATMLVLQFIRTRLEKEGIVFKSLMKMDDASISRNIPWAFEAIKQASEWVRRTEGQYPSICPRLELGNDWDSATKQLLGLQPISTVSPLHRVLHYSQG

[4] = biological target: T2, Protein mono-ADP-ribosyltransferase PARP10 (Homo sapiens, UniProt Q53GL7); test: Inhibition of human PARP-10 using NAD+ as substrate incubated for 10 mins by fluorescence based analysis
T2 sequence (Q53GL7 whole entry): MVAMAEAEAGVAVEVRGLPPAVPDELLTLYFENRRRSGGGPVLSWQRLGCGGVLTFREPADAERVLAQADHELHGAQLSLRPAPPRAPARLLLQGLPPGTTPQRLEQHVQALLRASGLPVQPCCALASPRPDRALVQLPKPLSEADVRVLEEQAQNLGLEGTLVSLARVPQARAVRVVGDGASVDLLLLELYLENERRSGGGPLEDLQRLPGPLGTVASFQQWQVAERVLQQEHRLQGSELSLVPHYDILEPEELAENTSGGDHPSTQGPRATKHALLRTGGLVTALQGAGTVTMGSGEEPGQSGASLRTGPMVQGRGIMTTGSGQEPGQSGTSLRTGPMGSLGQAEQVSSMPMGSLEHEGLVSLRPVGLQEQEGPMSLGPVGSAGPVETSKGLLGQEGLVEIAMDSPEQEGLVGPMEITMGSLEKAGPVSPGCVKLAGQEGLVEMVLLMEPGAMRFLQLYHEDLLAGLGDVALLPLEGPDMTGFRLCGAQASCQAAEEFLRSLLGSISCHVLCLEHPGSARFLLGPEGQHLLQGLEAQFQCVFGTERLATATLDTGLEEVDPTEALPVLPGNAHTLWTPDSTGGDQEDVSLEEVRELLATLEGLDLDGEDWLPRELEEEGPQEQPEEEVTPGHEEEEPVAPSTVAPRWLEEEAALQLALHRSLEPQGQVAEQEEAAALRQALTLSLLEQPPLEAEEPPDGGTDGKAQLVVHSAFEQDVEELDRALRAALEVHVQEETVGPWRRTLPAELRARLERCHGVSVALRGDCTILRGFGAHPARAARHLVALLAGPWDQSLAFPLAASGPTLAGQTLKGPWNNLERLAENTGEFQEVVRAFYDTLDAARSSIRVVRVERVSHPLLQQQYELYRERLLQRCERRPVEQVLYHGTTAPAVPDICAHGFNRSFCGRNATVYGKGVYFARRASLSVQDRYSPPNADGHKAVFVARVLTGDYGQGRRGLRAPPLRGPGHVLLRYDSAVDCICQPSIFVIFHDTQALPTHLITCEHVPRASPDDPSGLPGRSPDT

[5] = biological target: T3, Protein mono-ADP-ribosyltransferase PARP3 (Homo sapiens, UniProt Q9Y6F1); test: Inhibition of human PARP3
T3 sequence (Q9Y6F1 whole entry): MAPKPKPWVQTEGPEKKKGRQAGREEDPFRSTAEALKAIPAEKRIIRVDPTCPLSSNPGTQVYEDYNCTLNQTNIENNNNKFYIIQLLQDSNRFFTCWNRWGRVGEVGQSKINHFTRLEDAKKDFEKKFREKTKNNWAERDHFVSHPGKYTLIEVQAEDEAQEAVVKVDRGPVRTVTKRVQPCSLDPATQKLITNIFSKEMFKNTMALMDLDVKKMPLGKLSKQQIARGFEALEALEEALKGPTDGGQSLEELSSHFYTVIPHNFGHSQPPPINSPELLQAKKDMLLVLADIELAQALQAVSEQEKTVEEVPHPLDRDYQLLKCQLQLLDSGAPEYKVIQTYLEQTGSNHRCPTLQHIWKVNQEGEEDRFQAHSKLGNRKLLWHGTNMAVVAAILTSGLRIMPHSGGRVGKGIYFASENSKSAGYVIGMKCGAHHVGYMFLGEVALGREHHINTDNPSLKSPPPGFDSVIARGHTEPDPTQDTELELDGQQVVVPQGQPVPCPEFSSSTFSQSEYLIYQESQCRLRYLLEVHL

[6] = biological target: Protein mono-ADP-ribosyltransferase PARP14 (Homo sapiens, UniProt Q460N5); test: Inhibition of human PARP14 using NAD+ as substrate incubated for 10 mins by fluorescence based analysis
Sequence of Protein mono-ADP-ribosyltransferase PARP14 (Q460N5 whole entry): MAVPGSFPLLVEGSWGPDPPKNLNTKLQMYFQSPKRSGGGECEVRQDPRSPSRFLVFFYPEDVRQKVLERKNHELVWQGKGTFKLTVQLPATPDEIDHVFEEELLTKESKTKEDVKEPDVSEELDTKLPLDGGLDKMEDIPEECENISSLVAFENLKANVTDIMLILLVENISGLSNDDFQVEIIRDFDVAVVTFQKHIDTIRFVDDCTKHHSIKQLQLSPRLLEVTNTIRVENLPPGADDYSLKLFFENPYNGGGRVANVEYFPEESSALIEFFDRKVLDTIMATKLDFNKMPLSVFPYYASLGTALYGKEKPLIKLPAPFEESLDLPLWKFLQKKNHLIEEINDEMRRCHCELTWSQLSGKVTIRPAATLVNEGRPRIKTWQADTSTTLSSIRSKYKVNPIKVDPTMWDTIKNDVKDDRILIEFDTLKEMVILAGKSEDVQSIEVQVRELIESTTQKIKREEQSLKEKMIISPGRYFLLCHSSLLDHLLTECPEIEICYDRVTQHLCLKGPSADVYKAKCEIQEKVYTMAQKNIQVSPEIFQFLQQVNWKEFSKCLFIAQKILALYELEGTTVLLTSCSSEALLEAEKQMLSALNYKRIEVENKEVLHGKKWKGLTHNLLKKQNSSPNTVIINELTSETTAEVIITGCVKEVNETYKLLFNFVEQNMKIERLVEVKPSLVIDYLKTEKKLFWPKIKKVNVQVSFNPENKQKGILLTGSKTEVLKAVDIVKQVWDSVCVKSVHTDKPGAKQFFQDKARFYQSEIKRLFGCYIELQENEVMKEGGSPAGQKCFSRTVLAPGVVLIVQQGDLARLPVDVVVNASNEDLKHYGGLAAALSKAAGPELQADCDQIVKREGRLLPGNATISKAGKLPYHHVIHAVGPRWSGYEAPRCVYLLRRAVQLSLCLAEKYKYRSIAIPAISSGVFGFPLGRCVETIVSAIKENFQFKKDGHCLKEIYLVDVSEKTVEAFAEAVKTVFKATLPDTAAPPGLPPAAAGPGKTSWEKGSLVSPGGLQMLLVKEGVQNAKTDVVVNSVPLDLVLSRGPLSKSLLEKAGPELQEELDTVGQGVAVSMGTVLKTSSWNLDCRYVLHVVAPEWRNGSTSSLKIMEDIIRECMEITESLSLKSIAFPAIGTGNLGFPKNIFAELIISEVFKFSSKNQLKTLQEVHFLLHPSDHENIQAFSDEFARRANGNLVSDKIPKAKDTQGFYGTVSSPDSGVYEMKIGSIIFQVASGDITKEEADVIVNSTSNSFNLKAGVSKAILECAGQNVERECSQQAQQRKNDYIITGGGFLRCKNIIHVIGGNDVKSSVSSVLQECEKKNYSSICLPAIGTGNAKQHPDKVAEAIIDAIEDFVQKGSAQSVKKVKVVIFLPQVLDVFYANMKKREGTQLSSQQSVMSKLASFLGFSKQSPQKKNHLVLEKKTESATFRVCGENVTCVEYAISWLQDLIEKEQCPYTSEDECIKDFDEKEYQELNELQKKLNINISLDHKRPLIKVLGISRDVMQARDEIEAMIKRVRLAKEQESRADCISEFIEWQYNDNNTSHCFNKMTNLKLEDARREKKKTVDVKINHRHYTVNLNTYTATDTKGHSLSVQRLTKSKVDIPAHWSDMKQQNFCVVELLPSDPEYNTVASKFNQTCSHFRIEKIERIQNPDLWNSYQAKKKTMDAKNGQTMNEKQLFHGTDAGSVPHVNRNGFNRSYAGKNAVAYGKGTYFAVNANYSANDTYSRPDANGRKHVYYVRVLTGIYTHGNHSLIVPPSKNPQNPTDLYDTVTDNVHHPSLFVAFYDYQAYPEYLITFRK

HEK-293T = test: Cytotoxicity against HEK293T cells assessed as reduction in cell viability at 10 uM measured after 24 hrs by WST-1 assay; type: toxicity, cell-based; details: human

Sequence of Poly [ADP-ribose] polymerase 2 (Q9UGN5 whole entry, the tested form may be a part): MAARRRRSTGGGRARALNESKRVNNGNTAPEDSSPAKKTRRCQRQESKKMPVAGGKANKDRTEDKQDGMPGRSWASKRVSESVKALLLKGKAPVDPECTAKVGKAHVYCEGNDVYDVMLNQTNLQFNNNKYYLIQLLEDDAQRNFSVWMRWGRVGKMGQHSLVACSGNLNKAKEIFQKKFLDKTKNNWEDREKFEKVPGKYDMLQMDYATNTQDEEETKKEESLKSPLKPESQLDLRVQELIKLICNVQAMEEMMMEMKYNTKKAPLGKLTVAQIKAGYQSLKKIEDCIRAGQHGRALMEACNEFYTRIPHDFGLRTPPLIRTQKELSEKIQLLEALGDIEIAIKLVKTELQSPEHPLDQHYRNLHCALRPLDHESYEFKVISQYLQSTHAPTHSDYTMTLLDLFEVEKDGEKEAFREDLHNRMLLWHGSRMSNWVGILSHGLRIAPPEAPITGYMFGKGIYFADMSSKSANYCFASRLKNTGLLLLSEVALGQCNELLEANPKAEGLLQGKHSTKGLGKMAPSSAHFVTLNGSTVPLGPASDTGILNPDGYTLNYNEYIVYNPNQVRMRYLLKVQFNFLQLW

- IC50 [1]: 38 µM
- IC50 [2]: > 100 µM
- IC50 [3]: > 100 µM
- IC50 [4]: 0.29 µM
- IC50 [5]: > 100 µM
- IC50 [6]: > 10 µM
Compound: NC(=O)c1ccc(OCC2CCC2)cc1
- Activity (HEK-293T): Non-Toxic
